According to ChEMBL document CHEMBL5537147, “Development of membrane-targeting TPP+-chloramphenicol conjugates to combat methicillin-resistant staphylococcus aureus (MRSA) infections” (Eur J Med Chem, 2024):

Tests used:
[1] = Cytotoxicity against human L02 cells assessed as inhibition of cell growth incubated for 24 hrs by MTT assay; type: toxicity, cell-based
[2] = system: Acinetobacter baumannii; assay: Antibacterial activity against Acinetobacter baumannii 1310 assessed as inhibition of bacterial growth incubated for 16 to 18 hrs by CLSI based two-fold serial dilution method; type: functional; conditions: time 16-18 hrs
[3] = system: Staphylococcus aureus; assay: Antibacterial activity against methicillin-resistant Staphylococcus aureus 3392 assessed as inhibition of bacterial growth incubated for 16 to 18 hrs by CLSI based two-fold serial dilution method; type: functional; conditions: time 16-18 hrs
[4] = system: Pseudomonas aeruginosa; assay: Antibacterial activity against Pseudomonas aeruginosa 535 assessed as inhibition of bacterial growth incubated for 16 to 18 hrs by CLSI based two-fold serial dilution method; type: functional; conditions: time 16-18 hrs
[5] = system: Acinetobacter baumannii; assay: Antibacterial activity against Acinetobacter baumannii 1309 assessed as inhibition of bacterial growth incubated for 16 to 18 hrs by CLSI based two-fold serial dilution method; type: functional; conditions: time 16-18 hrs
[6] = system: Staphylococcus aureus; assay: Antibacterial activity against methicillin-resistant Staphylococcus aureus 3390 assessed as inhibition of bacterial growth incubated for 16 to 18 hrs by CLSI based two-fold serial dilution method; type: functional; conditions: time 16-18 hrs
[7] = system: Pseudomonas aeruginosa; assay: Antibacterial activity against Pseudomonas aeruginosa 408 assessed as inhibition of bacterial growth incubated for 16 to 18 hrs by CLSI based two-fold serial dilution method; type: functional; conditions: time 16-18 hrs
[8] = system: Staphylococcus aureus; assay: Antibacterial activity against methicillin-resistant Staphylococcus aureus USA300 assessed as inhibition of bacterial growth incubated for 16 to 18 hrs by CLSI based two-fold serial dilution method; type: functional; conditions: time 16-18 hrs
[9] = system: Staphylococcus aureus; assay: Antibacterial activity against methicillin-resistant Staphylococcus aureus 330041 assessed as inhibition of bacterial growth incubated for 16 to 18 hrs by CLSI based two-fold serial dilution method; type: functional; conditions: time 16-18 hrs

Compound	IC50 at 24 h [1] [µg/mL]	MIC [2] [µg/mL]	MIC [3] [µg/mL]	MIC [4] [µg/mL]	MIC [5] [µg/mL]	MIC [6] [µg/mL]	MIC [7] [µg/mL]	MIC [8] [µg/mL]	MIC [9] [µg/mL]
Br.COc1cccc([P+](CCCCCCCCCC(=O)OC[C@H](NC(=O)C(Cl)Cl)[C@H](O)c2ccc([N+](=O)[O-])cc2)(c2cccc(OC)c2)c2cccc(OC)c2)c1	21.7	> 64	1	16	> 64	2	4	1	1
O=C(O)CCCCCCCCC[P+](c1cccc(F)c1)(c1cccc(F)c1)c1cccc(F)c1.[Br-]	> 64	> 64	> 64	> 64	> 64	> 64	> 64	> 64	> 64
CN(C)c1ccc([P+](CCCCCCCCCC(=O)O)(c2ccc(N(C)C)cc2)c2ccc(N(C)C)cc2)cc1.[Br-]	2.1	32	16	32	32	8	16	4	8
Br.O=C(CCCCCCCCCCC[P+](c1ccccc1)(c1ccccc1)c1ccccc1)OC[C@H](NC(=O)C(Cl)Cl)[C@H](O)c1ccc([N+](=O)[O-])cc1	16.5	> 64	2	> 64	> 64	2	> 64	2	2
O=C(O)CCCCCCCCCCC[P+](c1ccccc1)(c1ccccc1)c1ccccc1.[Br-]	> 64	> 64	> 64	> 64	> 64	> 64	> 64	> 64	> 64
Br.O=C(CCCCCCCCC[P+](c1ccc(Cl)cc1)(c1ccc(Cl)cc1)c1ccc(Cl)cc1)OC[C@H](NC(=O)C(Cl)Cl)[C@H](O)c1ccc([N+](=O)[O-])cc1	16.4	> 64	0.5	> 64	> 64	0.5	> 64	0.5	0.5
O=C(O)CCCCCCCCC[P+](c1ccc(F)cc1)(c1ccc(F)cc1)c1ccc(F)cc1.[Br-]	> 64	> 64	> 64	> 64	> 64	> 64	> 64	> 64	> 64
O=C(O)CCCCCCC[P+](c1ccccc1)(c1ccccc1)c1ccccc1.[Br-]	> 64	> 64	> 64	> 64	> 64	> 64	> 64	> 64	> 64
Br.O=C(CCCC[P+](c1ccccc1)(c1ccccc1)c1ccccc1)OC[C@H](NC(=O)C(Cl)Cl)[C@H](O)c1ccc([N+](=O)[O-])cc1	> 64	> 64	8	> 64	> 64	8	> 64	8	16
O=C(O)c1cn(C2CC2)c2cc(N3CCNCC3)c(F)cc2c1=O [CIPROFLOXACIN]	> 64								
Br.O=C(CCCCCCCCC[P+](c1ccc(C(F)(F)F)cc1)(c1ccc(C(F)(F)F)cc1)c1ccc(C(F)(F)F)cc1)OC[C@H](NC(=O)C(Cl)Cl)[C@H](O)c1ccc([N+](=O)[O-])cc1	> 32	> 64	1	> 64	> 64	1	> 64	1	1
Br.O=C(CCCCCCCCC[P+](c1cccc(F)c1)(c1cccc(F)c1)c1cccc(F)c1)OC[C@H](NC(=O)C(Cl)Cl)[C@H](O)c1ccc([N+](=O)[O-])cc1	28.7	> 64	1	> 64	> 64	1	> 64	1	1
Br.O=C(CC[P+](c1ccccc1)(c1ccccc1)c1ccccc1)OC[C@H](NC(=O)C(Cl)Cl)[C@H](O)c1ccc([N+](=O)[O-])cc1	> 64	> 64	> 64	> 64	> 64	> 64	> 64	> 64	> 64
COc1ccc([P+](CCCCCCCCCC(=O)O)(c2ccc(OC)cc2)c2ccc(OC)cc2)cc1.[Br-]	13.5	64	32	> 64	64	16	> 64	32	32
Br.O=C(CCCCCCCCCCCCCCCCC[P+](c1ccccc1)(c1ccccc1)c1ccccc1)OC[C@H](NC(=O)C(Cl)Cl)[C@H](O)c1ccc([N+](=O)[O-])cc1	7.9	> 64	2	> 64	> 64	2	> 64	2	2
Br.O=C(CCCCCCC[P+](c1ccccc1)(c1ccccc1)c1ccccc1)OC[C@H](NC(=O)C(Cl)Cl)[C@H](O)c1ccc([N+](=O)[O-])cc1	> 64	> 64	2	> 64	> 64	2	> 64	2	2
O=C(O)CCCCCn1cc(C[P+](c2ccc(F)cc2)(c2ccc(F)cc2)c2ccc(F)cc2)nn1.[Br-]	> 64	> 64	> 64	> 64	> 64	> 64	> 64	> 64	> 64
Br.CN(C)c1ccc([P+](CCCCCCCCCC(=O)OC[C@H](NC(=O)C(Cl)Cl)[C@H](O)c2ccc([N+](=O)[O-])cc2)(c2ccc(N(C)C)cc2)c2ccc(N(C)C)cc2)cc1	12.4	32	1	16	16	1	4	1	1
Cc1ccc([P+](CCCCCCCCCC(=O)O)(c2ccc(C)cc2)c2ccc(C)cc2)cc1.[Br-]	23.1	> 64	> 64	> 64	> 64	> 64	> 64	> 64	> 64
Br.O=C(CCCCCn1cc(C[P+](c2ccc(F)cc2)(c2ccc(F)cc2)c2ccc(F)cc2)nn1)OC[C@H](NC(=O)C(Cl)Cl)[C@H](O)c1ccc([N+](=O)[O-])cc1	> 64	> 64	16	> 64	> 64	16	> 64	16	16
O=C(O)CCC[P+](c1ccccc1)(c1ccccc1)c1ccccc1.[Br-]	> 64	> 64	> 64	> 64	> 64	> 64	> 64	> 64	> 64
